The values below come from patent publication US7803377B2, “Anti-DLL4 antibodies and methods using same” (Genentech, Inc., priority 2006, dated 2010).

The subject of series [1] is human lung carcinoma Calu6 cells. The series can be described thus: Tumor model Calu6. It counts as in vivo, mouse. The settings on record: treatment initiated at ≧250 mm^3; 10 mg/kg i.p. twice weekly; two weeks of treatment. On the procedure:
(§1) Tumor models. Beige nude female mice of 8- to 10-week-old were used. To obtain subcutaneous tumors, mice were injected with 0.1 ml cell suspension containing 50% matrigel (BD Bioscience) into the right posterior flank. 5×10^6 human colon cancer HM7 cells, 10×10^6 human colon carcinoma Colo205 cells, 10×10^6 human lung carcinoma Calu6 cells, 10×10^6 human lung carcinoma MV-522 cells, 10×10^6 mouse leukemia WEHI-3 cells, 10×10^6 mouse lymphoma EL4 cells, 10×10^6 human ovarian cancer SK-OV-3 X1 cells, 10×06 mouse lung cancer LL2 cells, 10×10^6 leukemia/lymphoma EL4 cells, or 10×10^6 non-small lung cancer H1299 cells were injected into each mouse. For human melanoma MDA-MB-435 model, mice were injected into the mammary fat pad with 0.1 ml cell (5×10^6) suspension containing 50% matrigel. […] For the following tumor models, each test mouse received a subcutaneous tumor fragment (1 mm^3) implanted in the right flank: non-small lung cancer SKMES-1, human breast cancer MX-1, human colorectal cancer SW620 and human adenocarcinoma LS174T. The tumor growth was quantitated by caliper measurements. Tumor volume (mm^3) was determined by measuring the length (l) and width (w) and calculating the volume (V=lw2/2). 10 to 15 animals were included in each group. Statistical comparison of treatment groups was performed using two-tailed Student's t-test. […]

The test system of series [2] is adult retinal vasculature. Kind of series: Adult mouse retina vasculature (ASMA and isolectin staining). In kind it is in vivo. The following applies: 8 week-old mice, 10 mg/kg, twice weekly for two weeks. The source says: FIG. 8: DLL4-mediated Notch signaling regulated EC differentiation. a, The lumen-like structures (white arrows) formed by HUVECs growing in fibrin gels were lost in the presence of anti-DLL4 antibody or DBZ. Instead, the spouts were highly packed with cells (black arrows). b, Regulation of TGFβ2 by Notch. Quantitative PCR analysis of TGFβ2 expression in response to, Notch blockade in 3-D fibrin gel culture of HUVECs for (7 d) by anti-DLL4 antibody or DBZ (left), or Notch activation in 2-D culture of HUVECs (36 hr) by immobilized DLL4 (right). c, Anti-DLL4 antibody blocks arterial development. Confocal images of neonatal mouse retinas stained with alpha smooth muscle actin (ASMA) and isolectin. Neonatal mice were treated as described in FIG. 1d. d, Confocal images of adult mouse retinas stained with ASMA and isolectin. 8 week-old mice were treated with PBS or anti-DLL4 antibody (10 mg/kg, twice weekly) for two weeks.
Thus, DLL4/Notch signaling is critical during active angiogenesis, but plays a less important role in normal vessel maintenance.

For series [3], the target named is DLL4 (Homo sapiens, UniProt Q9NR61). The series can be described thus: Notch ligand: Notch blocking ELISA (DLL4-AP / DLL4-His binding to coated rNotch1). More on the design: amino acid 1-404 of DLL4 fused to human placenta alkaline phosphatase; made in house; host or cells: 293 cells, conditioned medium (DLL4-AP). The following applies: purified DLL4-His, read-out: calculated IC50, blocking the binding of DLL4-His to coated rNotch1.
DLL4, sequence (Q9NR61 27-404): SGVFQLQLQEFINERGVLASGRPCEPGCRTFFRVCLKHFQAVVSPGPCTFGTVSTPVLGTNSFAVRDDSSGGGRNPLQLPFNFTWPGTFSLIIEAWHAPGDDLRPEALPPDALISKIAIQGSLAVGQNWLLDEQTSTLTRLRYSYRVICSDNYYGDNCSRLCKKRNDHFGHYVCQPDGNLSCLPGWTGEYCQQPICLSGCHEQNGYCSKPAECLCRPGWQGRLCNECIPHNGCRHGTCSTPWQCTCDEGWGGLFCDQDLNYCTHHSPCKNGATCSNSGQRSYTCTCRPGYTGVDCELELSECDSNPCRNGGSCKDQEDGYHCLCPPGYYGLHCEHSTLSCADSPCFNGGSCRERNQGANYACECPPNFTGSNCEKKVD
Description: Conditioned medium containing DLL4-AP (amino acid 1-404 of DLL4 fused to human placenta alkaline phosphatase) was used in the assay. To prepare conditioned medium, 293 cells were transiently transfected with plasmid expressing DLL4-AP with Fugen6 reagent (Roche Molecular Biochemicals). Five days posttransfection, the conditioned medium was harvested, filtered and stored at 4° C. Purified antibodies titrated from 0.15 to 25 μg/ml were preincubated for 1 hr at room temperature with DLL4-AP conditioned medium at a dilution that conferred 50% maximally achievable binding to coated rrNotch1-Fc. The antibody/DLL4-AP mixture was then added to rrNotch1-Fc coated plate for 1 hr at room temperature, after which plates were washed several times in PBS. The bound DLL4-AP was detected using 1-Step PNPP (Pierce) as substrate and OD 405 nm absorbance measurement. […] The bound His-tagged ligands was detected with mouse anti-His mAb (1 μg/ml, Roche Molecular Biochemicals), biotinylated goat-anti-mouse (Jackson ImmunoResearch) and Streptavidin-AP (Jackson ImmunoResearch).

The subject of series [4] is human melanoma MDA-MB-435. The series can be described thus: Tumor model MDA-MB-435 (mammary fat pad). In kind it is in vivo, mouse. The settings on record: treatment started 14 days post tumor cell injection. On the procedure: as §1
The subject of series [5] is human colon carcinoma Colo205 cells. The series can be described thus: Tumor model Colo205. In kind it is in vivo, mouse. On the procedure: as §1
For series [6], the target named is T1, DLL1 (Homo sapiens, UniProt O00548).
T1 sequence (O00548 18-723): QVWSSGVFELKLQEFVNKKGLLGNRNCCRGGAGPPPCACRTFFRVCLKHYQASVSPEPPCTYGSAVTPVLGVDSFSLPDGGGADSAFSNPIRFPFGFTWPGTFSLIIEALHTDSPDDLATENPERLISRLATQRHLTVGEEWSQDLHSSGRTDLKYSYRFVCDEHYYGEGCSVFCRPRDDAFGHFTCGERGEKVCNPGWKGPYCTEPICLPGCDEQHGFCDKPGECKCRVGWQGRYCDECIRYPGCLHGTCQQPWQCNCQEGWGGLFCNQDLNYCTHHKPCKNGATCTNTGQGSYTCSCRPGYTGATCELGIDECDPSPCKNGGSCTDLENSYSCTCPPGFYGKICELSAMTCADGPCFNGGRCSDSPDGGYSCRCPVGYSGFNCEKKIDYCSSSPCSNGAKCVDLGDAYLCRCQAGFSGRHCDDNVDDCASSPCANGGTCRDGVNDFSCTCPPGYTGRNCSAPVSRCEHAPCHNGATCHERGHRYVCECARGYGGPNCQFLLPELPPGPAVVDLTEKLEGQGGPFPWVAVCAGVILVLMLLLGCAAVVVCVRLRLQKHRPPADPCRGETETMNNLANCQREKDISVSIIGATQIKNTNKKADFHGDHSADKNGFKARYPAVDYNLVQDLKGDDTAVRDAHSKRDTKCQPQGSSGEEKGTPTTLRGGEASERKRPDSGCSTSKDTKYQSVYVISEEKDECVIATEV
Kind of series: FACS analysis of transiently transfected 293 cells. It counts as binding. Further details: transiently transfected with vector, full length DLL4, Jag1 or DLL1; expressed in transfected cells; host or cells: 293 cells, transient. The following applies: DLL1 transfected 293 cells; antibody 2 μg/ml. The source says: (§2) Expression of Jag1 and DLL1 was confirmed by the binding of recombinant rat Notch1-Fc (rrNotch1-Fc, middle panel) and recombinant rat Notch2-Fc (rrNotch2-Fc, bottom panel), respectively.

The target in series [7] is Jag1 (Homo sapiens, UniProt P78504). Kind of series: FACS analysis of transiently transfected 293 cells. In kind it is binding. More on the design: transiently transfected with vector, full length DLL4, Jag1 or DLL1; expressed in transfected cells; host or cells: 293 cells, transient. The following applies: Jag1 transfected 293 cells; antibody 2 μg/ml.
Description: as §2

The test system of series [8] is mouse leukemia WEHI-3 cells. Kind of series: Tumor model WEHI3. The following applies: treatment initiated at ≧250 mm^3. In kind it is in vivo. On the procedure:
as §1

On to “YW26.82: affinity matured anti-DLL4 monoclonal antibody; HVR-H1/H2/H3 SEQ ID NO:1, 8, 9; HVR-L1/L2/L3 SEQ ID NO:10, 11, 18”, for which the tumor volume result in series [1] is “remained static”; in series [5] (treatment initiated at ≧250 mm^3, 10 mg/kg i.p. twice weekly, two weeks of treatment) it was “remained static”. Also, the “impact on adult retinal vasculature” value in series [2] is given as “no visible impact on adult retinal vasculature”. For the same substance, in series [3], the IC50 is around 8 nM. The tumor growth entry in series [4] is listed as “inhibited tumors growing in mouse mammary fat pads”. The “tumor histology: EC density and viable tumor cell content” value in series [5] (anti-DLL4 Mab treated Colo205 tumors) is reported as “high EC density was associated with low viable tumor cell content”. Moreover, the “binding by FACS” value in series [6] and in series [7] was “Significant binding was not detected” in each case. Further, the “tumor growth, single agent” value in series [8] is on record as “significant inhibition of tumor growth”.
